Results taken from paper PMC9865890, “N-Derivatives of (Z)-Methyl 3-(4-Oxo-2-thioxothiazolidin-5-ylidene)methyl)-1H-indole-2-carboxylates as Antimicrobial Agents—In Silico and In Vitro Evaluation” (Pharmaceuticals, 2023).
In brackets after ≈: the same amount, converted by molar mass. Where two headings read alike, the source gives them in different places.

Experiments:
[1] = test system: Bacillus cereus (clinical isolate); test: Antibacterial microdilution (MIC/MBC); format: cell-based; conditions: Bacillus cereus, B.c. (B. cereus); for MIC: read-out: MIC
Method: (§1) The synthesized compounds (Table 1) were evaluated for their antibacterial activity against a panel of eight species using a microdilution method with ampicillin and streptomycin as reference drugs. […] The order of activity can be presented as: 8 > 11 > 2 > 1 > 12 > 3 > 17 > 7 > 5 > 13 > 14 > 16 > 9 > 4 = 6 > 15 > 10. […] Cloacae. […] The most sensitive bacteria appeared to be En. cloacae, while E. coli was the most resistant one, followed by M. flavus.
(§2) The following Gram-negative bacteria: Escherichia coli (ATCC 35210), Enterobacter cloacae (clinical isolate), Salmonella typhimurium (ATCC 13311), as well as Gram-positive bacteria: Listeria monocytogenes (NCTC 7973), Bacillus cereus (clinical isolate), and Staphylococcus aureus (ATCC 6538) were used. The organisms were obtained from the Mycological Laboratory, Department of Plant Physiology, Institute for Biological Research “Siniša Stankovic”, Belgrade, Serbia. The minimum inhibitory (MIC) and minimum bactericidal (MBC) concentrations were determined by the modified microdilution method, as previously reported.

[2] = test system: Escherichia coli (ATCC 35210); test: Antibacterial microdilution (MIC/MBC); format: cell-based; conditions: Escherichia coli, ATCC35210, E. coli; for MIC: read-out: MIC
Method: as §1, §2

[3] = test system: P. aeruginosa; test: Antibacterial microdilution (MIC/MBC); format: cell-based; conditions: Pseudomonas aeruginosa, P.a. (P. aeruginosa); for MIC: read-out: MIC
Method: as §1, §2

[4] = test system: M. flavus; test: Antibacterial microdilution (MIC/MBC); format: cell-based; conditions: Micrococcus flavus; M.f. (M. flavus)
Method: as §1, §2

[5] = test system: Salmonella typhimurium (ATCC 13311); test: Antibacterial microdilution (MIC/MBC); format: cell-based; conditions: Salmonella enterica, S.t. (S. typhimurium); for MIC: read-out: MIC
Method: as §1, §2

[6] = test system: Staphylococcus aureus (ATCC 6538); test: Antibacterial microdilution (MIC/MBC); format: cell-based; conditions: S.a. (S. aureus)
Method: as §1, §2

[7] = test system: Listeria monocytogenes (NCTC 7973); test: Antibacterial microdilution (MIC/MBC); format: cell-based; conditions: Listeria monocytogenes, NCTC7973, L.m. (L. monocytogenes); for MIC: read-out: MIC
Method: as §1, §2

[8] = test system: Enterobacter cloacae (clinical isolate); test: Antibacterial microdilution (MIC/MBC); format: cell-based; conditions: Enterobacter cloacae, En.cl (En. cloacae); for MIC: read-out: MIC
Method: as §1, §2

[9] = test system: Aspergillus fumigatus (ATCC 1022); test: Antifungal bioassay (MIC/MFC); format: cell-based; conditions: ATCC1022, A.f. (A. fumigatus)
Method: (§3) For the antifungal bioassays, six fungi were used: […] The organisms were obtained from the Mycological Laboratory, Department of Plant Physiology, Institute for Biological Research “Siniša Stankovic”, Belgrade, Serbia. All experiments were performed in duplicate.

[10] = test system: Penicillium funiculosum (ATCC 36839); test: Antifungal bioassay (MIC/MFC); format: cell-based; conditions: Talaromyces funiculosus, ATCC36839; P.f. (P. funiculosum)
Method: as §3

[11] = test system: Aspergillus niger (ATCC 6275); test: Antifungal bioassay (MIC/MFC); format: cell-based; conditions: ATCC6275, A.n. (A. niger)
Method: as §3

[12] = test system: Aspergillus versicolor (ATCC 11730); test: Antifungal bioassay (MIC/MFC); format: cell-based; conditions: ATCC11730, A.v. (A. versicolor)
Method: as §3

[13] = test system: A. ochraceus; test: Antifungal bioassay (MIC/MFC); format: cell-based; conditions: Aspergillus ochraceus, A.o. (A. ochraceus); for MIC: read-out: MIC
Method: as §3

[14] = test system: P. ochrochloron; test: Antifungal bioassay (MIC/MFC); format: cell-based; conditions: Penicillium ochrochloron; for MFC: P.o. (P. ochrochloron); for MIC: P.o. (P. ochrochloron; text: P. ochramensis), read-out: MIC
Method: as §3

[15] = test system: Penicillium verrucosum var. cyclopium (food isolate); test: Antifungal bioassay (MIC/MFC); format: cell-based
Method: For the antifungal bioassays, six fungi were used: Aspergillus niger (ATCC 6275), Aspergillus fumigatus (ATCC 1022), Aspergillus versicolor (ATCC 11730), Penicillium funiculosum (ATCC 36839), Trichoderma viride (IAM 5061), and Penicillium verrucosum var. cyclopium (food isolate). The organisms were obtained from the Mycological Laboratory, Department of Plant Physiology, Institute for Biological Research “Siniša Stankovic”, Belgrade, Serbia. All experiments were performed in duplicate.

[16] = Staphylococcus aureus, ATCC6538
[17] = Staphylococcus aureus, ATCC6538, read-out: MIC

| Compound | MBC [1] | MIC [1] | MBC [2] | MIC [2] | MBC [3] | MIC [3] | MBC [4] | MIC [4] | MBC [5] | MIC [5] | MBC [6, 16] | MIC [6, 17] | MBC [7] | MIC [7] | MBC [8] | MIC [8] | MFC [9] | MIC [9] | MFC [10] | MIC [10] | further results |
| --- | --- | --- | --- | --- | --- | --- | --- | --- | --- | --- | --- | --- | --- | --- | --- | --- | --- | --- | --- | --- | --- |
| COC(=O)c1[nH]c2cc(OC)ccc2c1/C=C1\SC(=S)N(c2cccc(F)c2)C1=O [Compound 13, (Z)-methyl 3-((3-(3-fluorophenyl)-4-oxo-2-thioxothiazolidin-5-ylidene)methyl)-6-methoxy-1H-indole-2-carboxylate] | 60 ± 6 µg/mL (≈ 136 µM) | 30 ± 10 µg/mL (≈ 67.8 µM) | 60 ± 6 µg/mL (≈ 136 µM) | 45 ± 3 µg/mL (≈ 102 µM) | 60 ± 6 µg/mL (≈ 136 µM) | 30 ± 10 µg/mL (≈ 67.8 µM) | 60 ± 6 µg/mL (≈ 136 µM) | 45 ± 3 µg/mL (≈ 102 µM) | 60 ± 6 µg/mL (≈ 136 µM) | 30 ± 10 µg/mL (≈ 67.8 µM) | 30 ± 10 µg/mL (≈ 67.8 µM) | 15 ± 9 µg/mL (≈ 33.9 µM) | 60 ± 6 µg/mL (≈ 136 µM) | 30 ± 10 µg/mL (≈ 67.8 µM) | 30 ± 10 µg/mL (≈ 67.8 µM) | 15 ± 9 µg/mL (≈ 33.9 µM) | 120 ± 40 µg/mL (≈ 271 µM) | 60 ± 6 µg/mL (≈ 136 µM) | 30 ± 10 µg/mL (≈ 67.8 µM) | 15 ± 3 µg/mL (≈ 33.9 µM) | MFC [11]: 30 ± 10 µg/mL (≈ 67.8 µM); MIC [11]: 15 ± 3 µg/mL (≈ 33.9 µM); MFC [12]: 30 ± 10 µg/mL (≈ 67.8 µM); MIC [12]: 15 ± 3 µg/mL (≈ 33.9 µM); MFC [13]: 15 ± 3 µg/mL (≈ 33.9 µM); MIC [13]: 8 ± 0.6 µg/mL (≈ 18.1 µM); MFC [14]: 30 ± 10 µg/mL (≈ 67.8 µM); MIC [14]: 15 ± 3 µg/mL (≈ 33.9 µM); MFC [15]: 30 ± 10 µg/mL (≈ 67.8 µM); MIC [15]: 15 ± 3 µg/mL (≈ 33.9 µM); melting point: 238 to 240 °C |
| COC(=O)c1[nH]c2ccc(F)cc2c1/C=C1\SC(=S)N(CCC(=O)O)C1=O [Compound 14, (Z)-3-(5-((5-fluoro-2-(methoxycarbonyl)-1H-indol-3-yl)methylene)-4-oxo-2-thioxothiazolidin-3-yl)propanoic acid] | 60 ± 6 µg/mL (≈ 147 µM) | 30 ± 10 µg/mL (≈ 73.5 µM) | 60 ± 6 µg/mL (≈ 147 µM) | 45 ± 3 µg/mL (≈ 110 µM) | 30 ± 10 µg/mL (≈ 73.5 µM) | 15 ± 9 µg/mL (≈ 36.7 µM) | 60 ± 6 µg/mL (≈ 147 µM) | 45 ± 3 µg/mL (≈ 110 µM) | 60 ± 6 µg/mL (≈ 147 µM) | 45 ± 3 µg/mL (≈ 110 µM) | 60 ± 6 µg/mL (≈ 147 µM) | 30 ± 10 µg/mL (≈ 73.5 µM) | 60 ± 6 µg/mL (≈ 147 µM) | 45 ± 3 µg/mL (≈ 110 µM) | 30 ± 10 µg/mL (≈ 73.5 µM) | 15 ± 9 µg/mL (≈ 36.7 µM) | 120 ± 40 µg/mL (≈ 294 µM) | 60 ± 6 µg/mL (≈ 147 µM) | 30 ± 10 µg/mL (≈ 73.5 µM) | 15 ± 3 µg/mL (≈ 36.7 µM) | MFC [11]: 30 ± 10 µg/mL (≈ 73.5 µM); MIC [11]: 15 ± 3 µg/mL (≈ 36.7 µM); MFC [12]: 30 ± 10 µg/mL (≈ 73.5 µM); MIC [12]: 15 ± 3 µg/mL (≈ 36.7 µM); MFC [13]: 30 ± 10 µg/mL (≈ 73.5 µM); MIC [13]: 15 ± 3 µg/mL (≈ 36.7 µM); MFC [14]: 30 ± 10 µg/mL (≈ 73.5 µM); MIC [14]: 15 ± 3 µg/mL (≈ 36.7 µM); MFC [15]: 30 ± 10 µg/mL (≈ 73.5 µM); MIC [15]: 15 ± 3 µg/mL (≈ 36.7 µM); melting point: 275 to 276 °C |
| COC(=O)c1[nH]c2ccccc2c1/C=C1\SC(=S)N(CCC(=O)O)C1=O [Compound 17, (Z)-3-(5-((2-(methoxycarbonyl)-1H-indol-3-yl)methylene)-4-oxo-2-thioxothiazolidin-3-yl)propanoic acid] | 60 ± 6 µg/mL (≈ 154 µM) | 30 ± 10 µg/mL (≈ 76.8 µM) | 60 ± 6 µg/mL (≈ 154 µM) | 45 ± 3 µg/mL (≈ 115 µM) | 15 ± 9 µg/mL (≈ 38.4 µM) | 8 µg/mL (≈ 20.5 µM) | 60 ± 6 µg/mL (≈ 154 µM) | 30 ± 10 µg/mL (≈ 76.8 µM) | 60 ± 6 µg/mL (≈ 154 µM) | 30 ± 10 µg/mL (≈ 76.8 µM) | 15 µg/mL (≈ 38.4 µM) | 8 µg/mL (≈ 20.5 µM) | 60 ± 6 µg/mL (≈ 154 µM) | 30 ± 10 µg/mL (≈ 76.8 µM) | 15 ± 9 µg/mL (≈ 38.4 µM) | 8 ± 0.6 µg/mL (≈ 20.5 µM) | 120 ± 40 µg/mL (≈ 307 µM) | 60 ± 6 µg/mL (≈ 154 µM) | 30 ± 10 µg/mL (≈ 76.8 µM) | 15 ± 3 µg/mL (≈ 38.4 µM) | MIC [6]: 8 ± 0.6 µg/mL (≈ 20.5 µM); MFC [11]: 15 ± 3 µg/mL (≈ 38.4 µM); MIC [11]: 22 ± 5 µg/mL (≈ 56.3 µM); MFC [12]: 30 ± 10 µg/mL (≈ 76.8 µM); MIC [12]: 15 ± 3 µg/mL (≈ 38.4 µM); MFC [13]: 15 ± 3 µg/mL (≈ 38.4 µM); MIC [13]: 8 ± 0.6 µg/mL (≈ 20.5 µM); MFC [14]: 30 ± 10 µg/mL (≈ 76.8 µM); MIC [14]: 15 ± 3 µg/mL (≈ 38.4 µM); MFC [15]: 60 ± 6 µg/mL (≈ 154 µM); MIC [15]: 30 ± 10 µg/mL (≈ 76.8 µM); melting point: 265 to 266 °C |
